Reference: patent publication US20250325687A1, “CONJUGATE COMPRISING TOLL-LIKE RECEPTOR AGONIST” (MABSOFT THERAPEUTICS (SHANGHAI) CO., LTD., priority 2022, published 2025)

Experiments:
Format in all cases: cell-based
[1] = molecular target: T1, hTLR8 (human Toll-like receptor 8) (Homo sapiens, UniProt Q9NR97); experiment: hTLR8 cell assay (HEK-Blue hTLR8 reporter cells); settings: 24 hours, OD 650 nm
T1 construct: host or cells: HEK-Blue hTLR8 (HEK293-derived reporter cells)
T1 sequence (Q9NR97 27-1041): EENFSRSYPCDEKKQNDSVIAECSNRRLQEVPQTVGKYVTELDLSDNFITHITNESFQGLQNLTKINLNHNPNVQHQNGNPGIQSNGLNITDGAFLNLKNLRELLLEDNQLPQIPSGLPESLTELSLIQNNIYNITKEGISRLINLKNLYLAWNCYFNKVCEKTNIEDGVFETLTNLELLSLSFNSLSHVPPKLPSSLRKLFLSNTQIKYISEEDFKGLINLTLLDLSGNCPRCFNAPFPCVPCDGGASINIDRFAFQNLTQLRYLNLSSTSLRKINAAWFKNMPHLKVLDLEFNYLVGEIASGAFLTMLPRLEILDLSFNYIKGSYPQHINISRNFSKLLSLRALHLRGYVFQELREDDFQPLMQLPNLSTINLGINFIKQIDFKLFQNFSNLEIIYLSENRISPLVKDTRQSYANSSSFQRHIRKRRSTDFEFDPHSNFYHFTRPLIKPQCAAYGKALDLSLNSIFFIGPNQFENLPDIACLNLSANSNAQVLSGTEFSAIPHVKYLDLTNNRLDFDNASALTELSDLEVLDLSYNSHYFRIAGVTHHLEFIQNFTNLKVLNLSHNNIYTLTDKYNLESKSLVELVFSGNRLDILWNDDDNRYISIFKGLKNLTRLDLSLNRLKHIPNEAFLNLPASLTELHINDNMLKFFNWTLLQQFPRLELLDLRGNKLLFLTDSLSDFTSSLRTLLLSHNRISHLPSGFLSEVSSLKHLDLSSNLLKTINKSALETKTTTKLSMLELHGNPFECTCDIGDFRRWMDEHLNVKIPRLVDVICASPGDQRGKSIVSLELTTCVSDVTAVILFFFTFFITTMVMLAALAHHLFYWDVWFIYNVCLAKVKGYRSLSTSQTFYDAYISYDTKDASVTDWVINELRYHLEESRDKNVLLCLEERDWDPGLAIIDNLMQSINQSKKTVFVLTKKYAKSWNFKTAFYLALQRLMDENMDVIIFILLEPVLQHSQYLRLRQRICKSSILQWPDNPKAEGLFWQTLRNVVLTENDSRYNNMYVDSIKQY
Procedure, shortened: (§1)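 HEK-Blue reporter cells in HEK-Blue Detection medium (50000 cells/mL) were exposed to test compounds for 24 hours at 37° C, 5% CO2. Agonism was read from supernatant incubated 1 hour at 37° C with QUANTI-Blue, measured as optical density at 650 nm.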

[2] = system: human PBMC (human peripheral blood mononuclear cells); experiment: PBMC screening assay: induction of TNF-α production; settings: human PBMC, 24 hours, TNF-α by ELISA; class symbols; read-out: EC50 (μM) TNF-α (hPBMC)
Procedure, shortened: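 Human PBMC were rested for 24 h, then treated in duplicate with compound at 2.54 nM to 50 μM for 24 h at 37 °C. Secreted TNF-α in the cleared supernatant was quantified by ELISA, read at OD 450 nm.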

[3] = molecular target: T2, hTLR7 (human Toll-like receptor 7) (Homo sapiens, UniProt Q9NYK1); experiment: hTLR7 cell assay (HEK-Blue hTLR7 reporter cells); settings: 24 hours, OD 650 nm
T2 construct: host or cells: HEK-Blue hTLR7 (HEK293-derived reporter cells)
T2 sequence (Q9NYK1 27-1049): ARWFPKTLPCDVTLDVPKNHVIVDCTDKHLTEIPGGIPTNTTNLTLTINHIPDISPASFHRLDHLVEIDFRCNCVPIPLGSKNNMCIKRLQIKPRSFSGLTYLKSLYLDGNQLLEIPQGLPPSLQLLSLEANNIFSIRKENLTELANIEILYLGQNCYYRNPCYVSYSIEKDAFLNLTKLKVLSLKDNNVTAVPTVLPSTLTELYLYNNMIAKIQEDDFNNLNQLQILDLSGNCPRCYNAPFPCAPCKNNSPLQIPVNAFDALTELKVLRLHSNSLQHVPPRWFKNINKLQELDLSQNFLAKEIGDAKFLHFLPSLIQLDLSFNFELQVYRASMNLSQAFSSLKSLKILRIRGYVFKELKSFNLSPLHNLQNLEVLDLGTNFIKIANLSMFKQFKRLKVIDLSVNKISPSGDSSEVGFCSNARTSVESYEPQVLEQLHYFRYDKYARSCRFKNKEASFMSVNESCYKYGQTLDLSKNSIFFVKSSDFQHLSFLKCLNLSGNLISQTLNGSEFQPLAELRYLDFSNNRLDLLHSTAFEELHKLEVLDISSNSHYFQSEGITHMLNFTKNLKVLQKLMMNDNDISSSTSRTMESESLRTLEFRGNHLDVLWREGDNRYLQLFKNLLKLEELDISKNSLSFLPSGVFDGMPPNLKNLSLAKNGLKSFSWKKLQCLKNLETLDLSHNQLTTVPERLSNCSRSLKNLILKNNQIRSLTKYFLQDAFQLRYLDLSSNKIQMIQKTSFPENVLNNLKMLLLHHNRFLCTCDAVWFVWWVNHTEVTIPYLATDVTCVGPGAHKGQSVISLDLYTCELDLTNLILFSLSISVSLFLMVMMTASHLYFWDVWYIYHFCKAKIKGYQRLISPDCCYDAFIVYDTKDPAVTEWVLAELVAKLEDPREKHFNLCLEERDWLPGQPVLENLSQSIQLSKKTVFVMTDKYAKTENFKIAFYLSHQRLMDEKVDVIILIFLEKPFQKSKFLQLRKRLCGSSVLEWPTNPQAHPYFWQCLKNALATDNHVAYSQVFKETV
Procedure, shortened: as §1

Compound | EC50 [1] [nM] | EC50 [2] [µM] | EC50 [3] [nM]
CCCCc1nc2c(N)nc3cc(Cc4ccc(CN)s4)ccc3c2n1CC(C)(C)O [Compound 69, 1-(4-amino-7-((5-(aminomethyl)thiophen-2-yl)methyl)-2-butyl-1H-imidazo[4,5-c]quinolin-1-yl)-2-methylpropan-2-ol] | < 5000 | < 0.64 | < 1000
CCCCc1nc2c(N)nc3cc(Cc4ccc(C(C)(C)CN)cc4)ccc3c2n1CC(C)(C)O [Compound 70, 1-(4-amino-7-(4-(1-amino-2-methylpropan-2-yl)benzyl)-2-butyl-1H-imidazo[4,5-c]quinolin-1-yl)-2-methylpropan-2-ol] | < 5000 | < 0.64 | < 1000
CCCCc1nc2c(N)nc3cc(Cc4ccccc4CN)ccc3c2n1CC(C)(C)O [Compound 71, 1-(4-amino-7-(2-(aminomethyl)benzyl)-2-butyl-1H-imidazo[4,5-c]quinolin-1-yl)-2-methylpropan-2-ol] | < 5000 | > 0.64 | 1000 to 10000
CCOCc1nc2c(N)nc3cc(Cc4ccc(CN)s4)ccc3c2n1CC(C)(C)O [Compound 147, 1-(4-amino-7-((5-(aminomethyl)thiophen-2-yl)methyl)-2-(ethoxymethyl)-1H-imidazo[4,5-c]quinolin-1-yl)-2-methylpropan-2-ol] | < 5000 | < 0.64 | < 1000
CCOCc1nc2c(N)nc3cc(Cc4cc(CN)ccc4F)ccc3c2n1CC(C)(C)O [Compound 148, 1-(4-amino-7-(5-(aminomethyl)-2-fluorobenzyl)-2-(ethoxymethyl)-1H-imidazo[4,5-c]quinolin-1-yl)-2-methylpropan-2-ol] | < 5000 | < 0.64 | < 1000
CCOCc1nc2c(N)nc3cc(Cc4ccc(F)c(CN)c4)ccc3c2n1CC(C)(C)O [Compound 149] | < 5000 | < 0.64 | < 1000
CCOCc1nc2c(N)nc3cc(Cc4cccc(CNC(=O)CN)c4)ccc3c2n1CC(C)(C)O [Compound 150, 2-amino-N-(3-((4-amino-2-(ethoxymethyl)-1-(2-hydroxy-2-methylpropyl)-1H-imidazo[4,5-c]quinolin-7-yl)methyl)benzyl)acetamide] | < 5000 | < 0.64 | 1000 to 10000
CCOCc1nc2c(N)nc3cc(Cc4cccc(C(=O)NCCN)c4)ccc3c2n1CC(C)(C)O [Compound 151, 3-((4-amino-2-(ethoxymethyl)-1-(2-hydroxy-2-methylpropyl)-1H-imidazo[4,5-c]quinolin-7-yl)methyl)-N-(2-aminoethyl)benzamide] | < 5000 | < 0.64 | 1000 to 10000
CCOCc1nc2c(N)nc3cc(Cc4ccc5c(c4)CCNC5)ccc3c2n1CC(C)(C)O [Compound 152, 1-(4-amino-2-(ethoxymethyl)-7-((1,2,3,4-tetrahydroisoquinolin-6-yl)methyl)-1H-imidazo[4,5-c]quinolin-1-yl)-2-methylpropan-2-ol] | < 5000 | < 0.64 | < 1000
CCOCc1nc2c(N)nc3cc(Cc4cccc(N5CCNCC5)c4)ccc3c2n1CC(C)(C)O [Compound 153, 1-(4-amino-2-(ethoxymethyl)-7-(3-(piperazin-1-yl)benzyl)-1H-imidazo[4,5-c]quinolin-1-yl)-2-methylpropan-2-ol] | < 5000 | < 0.64 | < 1000
